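Method: 48-hour compound exposure of cells in 96-well plates, five concentrations, linear interpolation of endpoints. The concentration for 50% growth inhibition is given as GI50.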 The source made the active and inactive calls. Rule as the data show it: active = GI50 up to about 1.1 µM and inactive = higher.
How the values were obtained:
Test in all cases: inhibition of tumour cell growth, NCI panel, 48 h
MCF7 = test system: MCF7
SW-620 = test system: SW-620
NCI-H522 = test system: NCI-H522
SF-539 = test system: SF-539
HOP-62 = test system: HOP-62
NCI/ADR-RES = test system: NCI/ADR-RES
SK-OV-3 = test system: SK-OV-3
SNB-19 = test system: SNB-19
ACHN = test system: ACHN
Malme-3M = test system: Malme-3M
UO-31 = test system: UO-31
UACC-62 = test system: UACC-62
HOP-92 = test system: HOP-92
U-251 = test system: U-251
CCRF-CEM = test system: CCRF-CEM
K562 = test system: K562
TK-10 = test system: TK-10
SR = test system: SR
SN12C = test system: SN12C
KM12 = test system: KM12
HCC 2998 = test system: HCC 2998
PC-3 = test system: PC-3
MDA-N = test system: MDA-N
HT-29 = test system: HT-29
786-0 = test system: 786-0
SF-295 = test system: SF-295
SK-MEL-2 = test system: SK-MEL-2
UACC-257 = test system: UACC-257
IGROV-1 = test system: IGROV-1
LOX IMVI = test system: LOX IMVI
A498 = test system: A498
RXF 393 = test system: RXF 393
NCI-H23 = test system: NCI-H23
BT-549 = test system: BT-549
Hs-578T = test system: Hs-578T
MDA-MB-231 = test system: MDA-MB-231
MOLT-4 = test system: MOLT-4
CAKI-1 = test system: CAKI-1
MDA-MB-435 = test system: MDA-MB-435
NCI-H460 = test system: NCI-H460
HCT-15 = test system: HCT-15
A549 = test system: A549
OVCAR-8 = test system: OVCAR-8
COLO 205 = test system: COLO 205
OVCAR-4 = test system: OVCAR-4
SK-MEL-28 = test system: SK-MEL-28
HL-60 = test system: HL-60
HCT-116 = test system: HCT-116
SK-MEL-5 = test system: SK-MEL-5
EKVX = test system: EKVX
M14 = test system: M14
DU-145 = test system: DU-145
T47D = test system: T47D
SF-268 = test system: SF-268
RPMI-8226 = test system: RPMI-8226
OVCAR-3 = test system: OVCAR-3
NCI-H226 = test system: NCI-H226
SNB-75 = test system: SNB-75
OVCAR-5 = test system: OVCAR-5

## Clc1ccc(C2=NN=C3C(c4ccccc4)=Nc4ccccc4N3C2)cc1
MCF7
  GI50: 4.4 µM (inactive)
SW-620
  GI50: 5.45 µM (inactive)
NCI-H522
  GI50: 2.75 µM (inactive)
SF-539
  GI50: 19.3 µM (inactive)
HOP-62
  GI50: 10.8 µM (inactive)
NCI/ADR-RES
  GI50: 4.48 µM (inactive)
SK-OV-3
  GI50: > 74.8 µM (inactive)
SNB-19
  GI50: 11.7 µM (inactive)
ACHN
  GI50: 7.06 µM (inactive)
Malme-3M
  GI50: 5.45 µM (inactive)
UO-31
  GI50: 3.72 µM (inactive)
UACC-62
  GI50: 5.3 µM (inactive)
HOP-92
  GI50: > 25.1 µM (inactive)
U-251
  GI50: 5.46 µM (inactive)
CCRF-CEM
  GI50: 2.03 µM (inactive)
K562
  GI50: 2.88 µM (inactive)
TK-10
  GI50: 3.89 µM (inactive)
SR
  GI50: 1.08 µM (active)
SN12C
  GI50: 20.9 µM (inactive)
KM12
  GI50: 6.82 µM (inactive)
HCC 2998
  GI50: 17.9 µM (inactive)
PC-3
  GI50: 8.61 µM (inactive)
MDA-N
  GI50: 7.03 µM (inactive)
HT-29
  GI50: 3.01 µM (inactive)
786-0
  GI50: 5.28 µM (inactive)
SF-295
  GI50: 11.1 µM (inactive)
SK-MEL-2
  GI50: 17.7 µM (inactive)
UACC-257
  GI50: 5.73 µM (inactive)
IGROV-1
  GI50: 7.87 µM (inactive)
LOX IMVI
  GI50: 3.76 µM (inactive)
A498
  GI50: 56.1 µM (inactive)
RXF 393
  GI50: 1.48 µM (inactive)
NCI-H23
  GI50: 16.3 µM (inactive)
BT-549
  GI50: 12.1 µM (inactive)
Hs-578T
  GI50: 2.09 µM (inactive)
MDA-MB-231
  GI50: 32.7 µM (inactive)
MOLT-4
  GI50: 0.957 µM (active)
CAKI-1
  GI50: 7.19 µM (inactive)
MDA-MB-435
  GI50: 4.72 µM (inactive)
NCI-H460
  GI50: 1.38 µM (inactive)
HCT-15
  GI50: 4.73 µM
A549
  GI50: 13.5 µM (inactive)
OVCAR-8
  GI50: 4.05 µM (inactive)
COLO 205
  GI50: 5.68 µM (inactive)
OVCAR-4
  GI50: 2.01 µM (inactive)
SK-MEL-28
  GI50: 37.5 µM (inactive)
HL-60
  GI50: 2.56 µM (inactive)
HCT-116
  GI50: 4.17 µM (inactive)
SK-MEL-5
  GI50: 3.27 µM (inactive)
EKVX
  GI50: 4.97 µM (inactive)
M14
  GI50: 2.79 µM (inactive)
DU-145
  GI50: 1.91 µM (inactive)
T47D
  GI50: 1.45 µM (inactive)
SF-268
  GI50: 2.88 µM (inactive)
RPMI-8226
  GI50: 2.63 µM (inactive)
OVCAR-3
  GI50: 2.02 µM (inactive)
NCI-H226
  GI50: 6.52 µM (inactive)

## CN(C)c1ccc(/C=C2\N=C(c3ccccc3)N(/N=C3\C(=O)Nc4ccccc43)C2=O)cc1
MCF7
  GI50: 35.8 µM (inactive)
SW-620
  GI50: 65 µM (inactive)
NCI-H522
  GI50: 23.4 µM (inactive)
SF-539
  GI50: > 100 µM (inactive)
HOP-62
  GI50: > 100 µM (inactive)
NCI/ADR-RES
  GI50: 83.8 µM (inactive)
SK-OV-3
  GI50: > 100 µM (inactive)
SNB-19
  GI50: > 100 µM (inactive)
ACHN
  GI50: 65.9 µM (inactive)
Malme-3M
  GI50: 45.9 µM (inactive)
UO-31
  GI50: 36 µM (inactive)
UACC-62
  GI50: > 100 µM (inactive)
HOP-92
  GI50: 16.9 µM (inactive)
U-251
  GI50: 76.6 µM (inactive)
CCRF-CEM
  GI50: 37.2 µM (inactive)
K562
  GI50: 32 µM (inactive)
TK-10
  GI50: 53.2 µM (inactive)
SR
  GI50: 27 µM (inactive)
SN12C
  GI50: 56.9 µM (inactive)
KM12
  GI50: 50.9 µM (inactive)
HCC 2998
  GI50: 52.4 µM (inactive)
PC-3
  GI50: 56.5 µM (inactive)
SNB-75
  GI50: 57.9 µM (inactive)
MDA-N
  GI50: 32.7 µM (inactive)
HT-29
  GI50: 53.8 µM (inactive)
786-0
  GI50: 52.4 µM (inactive)
SF-295
  GI50: 69.8 µM (inactive)
SK-MEL-2
  GI50: 37.7 µM (inactive)
UACC-257
  GI50: 85.3 µM (inactive)
IGROV-1
  GI50: 25.9 µM (inactive)
LOX IMVI
  GI50: 28.8 µM (inactive)
A498
  GI50: 73.6 µM (inactive)
RXF 393
  GI50: 45.1 µM (inactive)
NCI-H23
  GI50: > 100 µM (inactive)
BT-549
  GI50: > 100 µM (inactive)
Hs-578T
  GI50: 38.8 µM (inactive)
MDA-MB-231
  GI50: 92.5 µM (inactive)
MOLT-4
  GI50: 32 µM (inactive)
OVCAR-5
  GI50: > 100 µM (inactive)
CAKI-1
  GI50: 35.9 µM (inactive)
MDA-MB-435
  GI50: 20.4 µM (inactive)
NCI-H460
  GI50: 50.5 µM (inactive)
HCT-15
  GI50: 61.5 µM
A549
  GI50: 74.1 µM (inactive)
OVCAR-8
  GI50: 55 µM (inactive)
COLO 205
  GI50: 30.2 µM (inactive)
OVCAR-4
  GI50: 32.4 µM (inactive)
SK-MEL-28
  GI50: > 100 µM (inactive)
HL-60
  GI50: 35.2 µM (inactive)
HCT-116
  GI50: 57.3 µM (inactive)
SK-MEL-5
  GI50: 47.8 µM (inactive)
EKVX
  GI50: 27 µM (inactive)
M14
  GI50: 91.4 µM (inactive)
DU-145
  GI50: 61.9 µM (inactive)
T47D
  GI50: 41.6 µM (inactive)
SF-268
  GI50: 39.6 µM (inactive)
OVCAR-3
  GI50: 16.8 µM (inactive)
